From patent publication US20250009740A1, “METHODS AND COMPOSITIONS FOR TARGETING ALTERNATIVE METABOLISM ALONG WITH FLT3 INHIBITOR-MEDIATED ANTILEUKEMIC ACTIONS” (Ohio State Innovation Foundation, priority 2021, published 2025)

Experiments:
[1] = system: shRNA-stable MOLM-13 cells; assay: Annexin V/PI flow cytometry of shRNA-stable cells treated with gilteritinib; type: cell-based, human; conditions: 8 nM gilteritinib, 120 hours
Method: (A-D) Knockdown efficiency of selected targets by shRNA as detected by qPCR and Western blotting; GAPDH or β-actin serves as loading control. N=2. *p<0.05; **p<0.01; (E-H) Dose-response curves of shCDK9, shDHODH, shPRMT5 and shCDK7-stable MOLM-13 cells in response to 120-hour gilteritinib treatment. Cell viability was measured with MTS. Results are shown as mean±SEM of 4 technical replicates and 3-4 biological replicates. ***p-value<0.0001; ns=not significant. I) Knockdown of CDK9, PRMT5 or DHODH but not CDK7 with shRNA increases the frequency of apoptotic AML cell lines with gilteritinib. Parental, scrambled or gene-targeting shRNA-stable MOLM-13 cells were treated with 8 nM gileritinib for 120 hours and stained with Annexin V/PI for flow cytometry analysis. Data are shown as mean±SEM of % population from triplicates.
DHODH, CDK9 and PRMT5 genes were selected for validation, in light of their strong synergistic interactions with gilteritinib and availability of clinical grade inhibitors. MOLM-13 cells were transduced with shRNA targeting each of these genes and knockdown efficiencies were confirmed via qPCR and Western Blotting (FIG. 2A-D). Scrambled or gene-targeting shRNA transduced cells were treated with gilteritinib (2-25 nM dose range) for 120 hours followed by MTS analysis to quantify cell proliferation.

MOLM-13 luciferase cells = assay: MOLM-13-Luc+ FLT3-ITD AML xenograft in NCG mice; type: in vivo, mouse; conditions: 10 mg/kg dinaciclib weekly i.p., 30 mg/kg gilteritinib daily oral gavage, or both; vehicle 24 days
Method: (A) NCG mice were engrafted with MOLM-13 cells expressing luciferase and treated with vehicle, 10 mg/kg dinaciclib weekly, 30 mg/kg gilteritinib daily, or dinaciclib/gilteritinib combination.
Animal Studies All animal studies were carried out under protocols approved by The Ohio State University Institutional Animal Care and Use Committee (IACUC). 1×10^5 MOLM-13 luciferase cells were injected via tail vein into male NOD-Prkdc^em26Cd52Il2rg^em26Cd22/NjuCrl (NCG) from the Charles River Laboratory. On day 4 post-engraftment, mice were randomized to treatment arms. Mice received the following drugs and doses: weekly intraperitoneal injections of 10 mg/kg dinaciclib (MedChemExpress HY-10492) in 20% cyclodextrin (CTD THPB-P) diluted just prior to injection, daily oral gavage of 30 mg/kg gilteritinib (MedChemExpress HY-1432) in 6% drug w/w gelucire 44/14 (Gattefosse, France) aliquoted and mixed with drug weekly, oral gavage of vehicle control (gelucire 44/14), or combination therapy at single-agent regimens.

MV4-11 cells = assay: Pairwise dose combination synergy, MTS cell viability, HSA analysis; type: cell-based
Method: (§1) For dinaciclib, cells were treated for 2 hours with the drug before it was washed off and all other drugs were incubated with cells for 48-96 hours. Cell viability was measured with MTS. HSA analysis was used to determine regions of synergy. […] MOLM-13 and MV4-11 cells were treated with vehicle, 50 nM or 100 nM brequinar in combination with vehicle, 4 nM or 8 nM gilteritinib for 96 hours before cells were fixed and permeabilized for intracellular BV421-Ki67 staining and flow cytometry analysis. […] Primary cells were treated with vehicle, single agents or drug combination before cell apoptosis was measured with Annexin V/PI staining. Results are shown as mean±SEM of 3 biological replicates. […] Bone marrow cells from 3 FLT3-ITD patients, 2 FLT3-WT patients and 2 healthy donors were seeded into Methocult at 50,000 cells per condition with vehicle, single agents or drug combinations. The numbers of colonies were quantified for 1st and 2nd platings after 14 days post seeding. Results are shown as means of 2 biological replicates. * p<0.05 in comparison with EPZ015666, dinaciclib or brequinar alone.
(§2) Next, it was determined whether pharmacologic inhibition of CDK9, DHODH or PRMT5, using commercially available inhibitors (brequinar for DHODH, dinaciclib for CDK1/2/5/9, and EPZ015666 for PRMT5) is synergistic with gilteritinib in AML cells.

MOLM-13 cells [2] = assay: as above; type: cell-based, human
Method: as §1, §2

MOLM-13 cells [3] = assay: Proliferation assay of FLT3 inhibitor with telaglenastat, HSA analysis; type: cell-based, human; conditions: MOLM-13, 48 hours
Method: Proliferation assay of a range of doses of midostaurin or gilteritinib with telaglenstat on MOLM-13 cells treated for 48 hours. Highest single agent (HSA) analysis was used to determine regions of synergy.
FLT3-ITD inhibition reduces glutaminolysis by blocking glutamine influx through SLC1A5, the primary glutamine transporter^15,16. SLC38A2 can serve as a redundant glutamine transporter to compensate the deficiency of SLC1A5^17.

[4] = gilteritinib paired with dinaciclib or EPZ015666
[5] = gilteritinib paired with dinaciclib or EPZ015666, dinaciclib 2 hours then washed off, others 48-96 hours

## CCc1nc(C(N)=O)c(Nc2ccc(N3CCC(N4CCN(C)CC4)CC3)c(OC)c2)nc1NC1CCOCC1 [gilteritinib]
[1]; knockdown of CDK9
  increase of necroptotic/apoptotic cells vs scrambled control: 9 fold
[1]; knockdown of DHODH
  increase of necroptotic/apoptotic cells vs scrambled control: 5 fold
[1]; knockdown of PRMT5
  increase of necroptotic/apoptotic cells vs scrambled control: 2.6 fold
MOLM-13 luciferase cells
  mean survival time: 39 days
MV4-11 cells; [4]
  maximum synergy (drug concentration): 0.1 to 8 nM
MOLM-13 cells [2]; [5]
  synergy range (drug concentration): 2 to 10 nM

## CCc1cnn2c(NCc3ccc[n+]([O-])c3)cc(N3CCCC[C@H]3CCO)nc12 [dinaciclib]
MOLM-13 luciferase cells
  mean survival time: 27.5 days
MV4-11 cells; [4]
  maximum synergy (drug concentration): 0.0075 to 0.01 nM
MOLM-13 cells [2]; [5]
  synergy range (drug concentration): 0.0075 to 0.01 nM

## O=C(NC[C@H](O)CN1CCc2ccccc2C1)c1cc(NC2COC2)ncn1 [EPZ015666]
MV4-11 cells; in combination with 0.1-8 nM gilteritinib
  maximum synergy (drug concentration): 3000 to 100000 nM
MOLM-13 cells [2]; in combination with 2-10 nM gilteritinib
  synergy range (drug concentration): 1000 to 100000 nM

## O=C(Cc1cccc(OC(F)(F)F)c1)Nc1ccc(CCCCc2nnc(NC(=O)Cc3ccccn3)s2)nn1 [telaglenastat]
MOLM-13 cells [3]
  cytotoxic effect in combination with gilteritinib: synergistic cytotoxic effect
  cytotoxic effect in combination with midostaurin: synergistic cytotoxic effect
